Laboratory results as given in ChEMBL document CHEMBL4393717, “Development of novel human lactate dehydrogenase A inhibitors: High-throughput screening, synthesis, and biological evaluations” (Eur J Med Chem, 2019).
Active and inactive are the calls of the source. The rule behind the calls is not given here.

What was measured:
MIA PaCa-2 [1] = assay: Antitumor activity against human MIAPaCa2 cells xenografted in nude mouse assessed as reduction in tumor growth at 10 mg/kg administered once daily for 21 days measured twice a week; assay type: functional, organism-based
MIA PaCa-2 [2] = assay: Induction of apoptosis in human MIAPaCa2 cells assessed as necrotic cells at 10 uM incubated for 12 hrs by annexin V and propidium iodide staining based flow cytometry analysis (reference value: 1.54 %); assay type: functional
MIA PaCa-2 [3] = assay: Antitumor activity against human MIAPaCa2 cells xenografted in mouse assessed as reduction in tumor weight at 10 mg/kg administered once daily for 21 days measured twice a week; assay type: functional, organism-based
MIA PaCa-2 [4] = assay: Induction of apoptosis in human MIAPaCa2 cells incubated for 12 hrs by Annexin V-FITC/propidium iodide staining based flow cytometry; assay type: functional, cell-based
MIA PaCa-2 [5] = assay: Induction of apoptosis in human MIAPaCa2 cells assessed as early apoptotic cells at 1 uM incubated for 12 hrs by annexin V and propidium iodide staining based flow cytometry analysis (reference value: 0.40 %); assay type: functional
MIA PaCa-2 [6] = assay: Induction of apoptosis in human MIAPaCa2 cells assessed as necrotic cells at 1 uM incubated for 12 hrs by annexin V and propidium iodide staining based flow cytometry analysis (reference value: 1.54 %); assay type: functional
MIA PaCa-2 [7] = assay: Inhibition of colony formation in human MIAPaCa2 cells at 1 uM treated for 3 days and supplemented with fresh medium with out compound every 3 days measured after 15 days by crystal violet staining based assay; assay type: functional
MIA PaCa-2 [8] = assay: Antiproliferative activity against human MIAPaCa2 cells assessed as reduction in cell viability incubated for 72 hrs by MTT assay; assay type: functional, cell-based; settings: MIA PaCa-2, 72 h
MIA PaCa-2 [9] = assay: Induction of apoptosis in human MIAPaCa2 cells assessed as early apoptotic cells at 10 uM incubated for 12 hrs by annexin V and propidium iodide staining based flow cytometry analysis (reference value: 0.40 %); assay type: functional
MIA PaCa-2 [10] = assay: Cell cycle arrest in human MIAPaCa2 cells assessed as accumulation at G1 phase at 5 uM incubated for 24 hrs by propidium iodide staining based flow cytometry (reference value: 56.01%); assay type: functional
MIA PaCa-2 [11] = assay: Induction of apoptosis in human MIAPaCa2 cells assessed as late apoptotic cells at 1 uM incubated for 12 hrs by annexin V and propidium iodide staining based flow cytometry analysis (reference value: 3.21 %); assay type: functional
[12] = target: T1, L-lactate dehydrogenase A chain (Homo sapiens, UniProt P00338); assay: Inhibition of LDHA in human MIAPaCa2 cells assessed as switch of pyruvate metabolism from lactate production to oxidative phosphorylation by measuring decrease in extracellular acidification rate at 1 to 10 uM incubated for 4 hrs; assay type: cell-based
[13] = target: T1, L-lactate dehydrogenase A chain; assay: Inhibition of LDHA in human MIAPaCa2 cells assessed as switch of pyruvate metabolism from lactate production to oxidative phosphorylation by measuring reduction in lactate formation at 1 to 10 uM incubated for 4 hrs; assay type: cell-based
MIA PaCa-2 [14] = assay: Cell cycle arrest in human MIAPaCa2 cells assessed as accumulation at G2 phase at 1 uM incubated for 24 hrs by propidium iodide staining based flow cytometry (reference value: 31.00%); assay type: functional
[15] = target: T1, L-lactate dehydrogenase A chain; assay: Inhibition of LDHA in human MIAPaCa2 cells assessed as switch of pyruvate metabolism from lactate production to oxidative phosphorylation by measuring increase in oxygen consumption rate at 1 to 10 uM incubated for 4 hrs; assay type: cell-based
MIA PaCa-2 [16] = assay: Induction of apoptosis in human MIAPaCa2 cells assessed as viable cells at 1 uM incubated for 12 hrs by annexin V and propidium iodide staining based flow cytometry analysis (reference value: 94.85 %); assay type: functional; settings: MIA PaCa-2, 12 h, read-out: Activity
MIA PaCa-2 [17] = assay: Cell cycle arrest in human MIAPaCa2 cells assessed as accumulation at S phase at 10 uM incubated for 24 hrs by propidium iodide staining based flow cytometry (reference value: 12.99%); assay type: functional
MIA PaCa-2 [18] = assay: Cell cycle arrest in human MIAPaCa2 cells assessed as accumulation at G1 phase at 1 uM incubated for 24 hrs by propidium iodide staining based flow cytometry (reference value: 56.01%); assay type: functional
MIA PaCa-2 [19] = assay: Induction of apoptosis in human MIAPaCa2 cells assessed as late apoptotic cells at 10 uM incubated for 12 hrs by annexin V and propidium iodide staining based flow cytometry analysis (reference value: 3.21 %); assay type: functional
MIA PaCa-2 [20] = assay: Cell cycle arrest in human MIAPaCa2 cells assessed as accumulation at G2 phase at 5 uM incubated for 24 hrs by propidium iodide staining based flow cytometry (reference value: 31.00%); assay type: functional
MIA PaCa-2 [21] = assay: Cell cycle arrest in human MIAPaCa2 cells assessed as increase in accumulation at G2 phase incubated for 24 hrs by propidium iodide staining based flow cytometry; assay type: functional
MIA PaCa-2 [22] = assay: Inhibition of colony formation in human MIAPaCa2 cells treated for 3 days and supplemented with fresh medium with out compound every 3 days measured after 15 days by crystal violet staining based assay; assay type: functional, cell-based
[23] = target: T1, L-lactate dehydrogenase A chain; assay: Inhibition of recombinant human full-length N-terminal His-tagged LDHA (1 to 332 residues) expressed in Escherichia coli using sodium pyruvate as substrate incubated for 10 mins
MIA PaCa-2 [24] = assay: Cell cycle arrest in human MIAPaCa2 cells assessed as accumulation at S phase at 5 uM incubated for 24 hrs by propidium iodide staining based flow cytometry (reference value: 12.99%); assay type: functional
MIA PaCa-2 [25] = assay: Induction of apoptosis in human MIAPaCa2 cells assessed as necrotic cells at 5 uM incubated for 12 hrs by annexin V and propidium iodide staining based flow cytometry analysis (reference value: 1.54 %); assay type: functional
[26] = Toxicity in nude mouse xenografted with human MIAPaCa2 cells assessed as reduction in body weight at 10 mg/kg administered once daily for 21 days measured twice a week; assay type: organism-based; settings: in vivo, 504 h
MIA PaCa-2 [27] = assay: Cell cycle arrest in human MIAPaCa2 cells assessed as accumulation at G1 phase at 10 uM incubated for 24 hrs by propidium iodide staining based flow cytometry (reference value: 56.01%); assay type: functional
MIA PaCa-2 [28] = assay: Induction of apoptosis in human MIAPaCa2 cells assessed as early apoptotic cells at 5 uM incubated for 12 hrs by annexin V and propidium iodide staining based flow cytometry analysis (reference value: 0.40 %); assay type: functional
MIA PaCa-2 [29] = assay: Inhibition of colony formation in human MIAPaCa2 cells at 0.5 uM treated for 3 days and supplemented with fresh medium with out compound every 3 days measured after 15 days by crystal violet staining based assay; assay type: functional, cell-based
MIA PaCa-2 [30] = assay: Induction of apoptosis in human MIAPaCa2 cells assessed as late apoptotic cells at 5 uM incubated for 12 hrs by annexin V and propidium iodide staining based flow cytometry analysis (reference value: 3.21 %); assay type: functional
MIA PaCa-2 [31] = assay: Cell cycle arrest in human MIAPaCa2 cells assessed as accumulation at G2 phase at 10 uM incubated for 24 hrs by propidium iodide staining based flow cytometry (reference value: 31.00%); assay type: functional
MIA PaCa-2 [32] = assay: Induction of apoptosis in human MIAPaCa2 cells assessed as viable cells at 5 uM incubated for 12 hrs by annexin V and propidium iodide staining based flow cytometry analysis (reference value: 94.85 %); assay type: functional; settings: MIA PaCa-2, 12 h, read-out: Activity
A549 = assay: Antiproliferative activity against human A549 cells assessed as reduction in cell viability at incubated for 72 hrs by MTT assay; assay type: functional, cell-based; settings: A549, 72 h
MIA PaCa-2 [33] = assay: Cell cycle arrest in human MIAPaCa2 cells assessed as accumulation at S phase at 1 uM incubated for 24 hrs by propidium iodide staining based flow cytometry (reference value: 12.99%); assay type: functional
MIA PaCa-2 [34] = assay: Induction of apoptosis in human MIAPaCa2 cells assessed as viable cells at 10 uM incubated for 12 hrs by annexin V and propidium iodide staining based flow cytometry analysis (reference value: 94.85 %); assay type: functional; settings: MIA PaCa-2, 12 h, read-out: Activity

O=C(c1ccco1)N1CCN(Cc2cc(=O)c(OCc3ccccc3F)co2)CC1
Activity (MIA PaCa-2 [1]): Active
Activity (MIA PaCa-2 [2]): 13.38%
Activity (MIA PaCa-2 [3]): Active
Activity (MIA PaCa-2 [4]): Dose-dependent effect
Activity (MIA PaCa-2 [5]): 1.14%
Activity (MIA PaCa-2 [6]): 3.23%
inhibition at 1 µM (MIA PaCa-2 [7]): 100%
IC50 (MIA PaCa-2 [8]): 2100 nM
Activity (MIA PaCa-2 [9]): 3.79%
Activity (MIA PaCa-2 [10]): 44.51%
Activity (MIA PaCa-2 [11]): 5.79%
inhibition [12]: Active
inhibition [13]: Active
Activity (MIA PaCa-2 [14]): 38.52%
inhibition [15]: Active
viability at 1 µM (MIA PaCa-2 [16]): 89.8%
Activity (MIA PaCa-2 [17]): 3.8%
Activity (MIA PaCa-2 [18]): 49.19%
Activity (MIA PaCa-2 [19]): 27.68%
Activity (MIA PaCa-2 [20]): 42.12%
Activity (MIA PaCa-2 [21]): Dose-dependent effect
inhibition (MIA PaCa-2 [22]): Dose-dependent effect
EC50 [23]: 90 nM
Activity (MIA PaCa-2 [24]): 13.37%
Activity (MIA PaCa-2 [25]): 10.1%
Activity [26]: Non-Toxic
Activity (MIA PaCa-2 [27]): 36.21%
Activity (MIA PaCa-2 [28]): 3.47%
inhibition (MIA PaCa-2 [29]): Active
Activity (MIA PaCa-2 [30]): 19.86%
Activity (MIA PaCa-2 [31]): 59.99%
viability at 5 µM (MIA PaCa-2 [32]): 66.6%
IC50 (A549): 7800 nM
Activity (MIA PaCa-2 [33]): 12.29%
viability at 10 µM (MIA PaCa-2 [34]): 55.1%
